Columns and labels:
Assay type in all cases: biochemical
OYERo2a (WT) [1] = target: T1, OYERo2a (WT) (Rhodococcus opacus, UniProt A0A1B1KA86); assay: steady-state kinetics, NADPH consumption at […] nm; conditions: 50 mM phosphate pH 7.1, 25°C
T1 construct: gene O4328_33150; FMN 1:1; dimer by gel filtration; single Cys25

OYERo2a (WT) [2] = target: T2, OYERo2a (WT) (Rhodococcus opacus, UniProt A0A1B1KA86, C25S, form not given); assay: steady-state kinetics, NADPH consumption at […] nm; conditions: 50 mM phosphate pH 7.1, 25°C
T2 construct: gene O4328_33150; FMN 1:1; dimer by gel filtration; single Cys25
T2 sequence (A0A1B1KA86 entry or part of it C25S, form open): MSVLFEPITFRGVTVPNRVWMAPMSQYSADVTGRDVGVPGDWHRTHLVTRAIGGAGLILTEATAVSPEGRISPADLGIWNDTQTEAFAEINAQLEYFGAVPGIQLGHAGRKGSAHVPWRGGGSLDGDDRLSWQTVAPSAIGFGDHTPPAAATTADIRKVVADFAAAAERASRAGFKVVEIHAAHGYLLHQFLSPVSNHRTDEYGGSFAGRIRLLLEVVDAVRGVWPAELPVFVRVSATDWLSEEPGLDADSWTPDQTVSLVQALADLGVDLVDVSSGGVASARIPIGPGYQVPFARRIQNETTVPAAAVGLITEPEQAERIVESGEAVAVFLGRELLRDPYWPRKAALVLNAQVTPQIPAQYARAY

OYERo2a (WT) [3] = target: T2, OYERo2a (WT); assay: steady-state kinetics, BNAH consumption at […] nm; conditions: electron donor; 1 mM N-methylmaleimide, 50 mM phosphate pH 7.1, 25°C
OYERo2a (WT) [4] = target: T3, OYERo2a (WT) (Rhodococcus opacus, UniProt A0A1B1KA86, C25G, form not given); assay: steady-state kinetics, BNAH consumption at […] nm; conditions: electron donor; 1 mM N-methylmaleimide, 50 mM phosphate pH 7.1, 25°C
T3 construct: gene O4328_33150; FMN 1:1; dimer by gel filtration; single Cys25
T3 sequence (A0A1B1KA86 entry or part of it C25G, form open): as the sequence (A0A1B1KA86 entry or part of it C25S, form open) above, with S25G counted along it

OYERo2a (WT) [5] = target: T4, OYERo2a (WT) (Rhodococcus opacus, UniProt A0A1B1KA86, C25A, form not given); assay: steady-state kinetics, BNAH consumption at […] nm; conditions: electron donor; 1 mM N-methylmaleimide, 50 mM phosphate pH 7.1, 25°C
T4 construct: gene O4328_33150; FMN 1:1; dimer by gel filtration; single Cys25
T4 sequence (A0A1B1KA86 entry or part of it C25A, form open): as the sequence (A0A1B1KA86 entry or part of it C25S, form open) above, with S25A counted along it

OYERo2a (WT) [6] = target: T1, OYERo2a (WT); assay: steady-state kinetics, BNAH consumption at […] nm; conditions: electron donor; 1 mM N-methylmaleimide, 50 mM phosphate pH 7.1, 25°C
OYERo2a (WT) [7] = target: T4, OYERo2a (WT); assay: steady-state kinetics, NADPH consumption at […] nm; conditions: 50 mM phosphate pH 7.1, 25°C
OYERo2a (WT) [8] = target: T3, OYERo2a (WT); assay: steady-state kinetics, NADPH consumption at […] nm; conditions: 50 mM phosphate pH 7.1, 25°C
OYERo2a (WT) [9] = target: T1, OYERo2a (WT); assay: residual activity after pre-incubation; conditions: covalent (Cys25); 10 mM, 120 min, 50 mM phosphate pH 7.1, 4°C, dark, oxidized enzyme

T1 sequence (A0A1B1KA86 entry or part of it): as the sequence (A0A1B1KA86 entry or part of it C25S, form open) above, with S25C counted along it

O=C1C=CCCC1 [2-cyclohexen-1-one]
Km (OYERo2a (WT) [1]; 180 μM NADPH, read-out: WT): 3500 µM | Km (OYERo2a (WT) [2]; 180 μM NADPH, read-out: C25S): 8900 µM

NC(=O)C1=CN(Cc2ccccc2)C=CC1 [BNAH]
Km (OYERo2a (WT) [3]): 239 ± 24.3 µM | Km (OYERo2a (WT) [4]): 517 ± 45 µM | Km (OYERo2a (WT) [5]): 230 ± 17.8 µM | Km (OYERo2a (WT) [6]): 169 ± 12.4 µM

CN1C(=O)C=CC1=O [N-methylmaleimide]
Km (OYERo2a (WT) [7]; 180 μM NADPH, read-out: C25A): 9.1 µM | Km (OYERo2a (WT) [1]; 180 μM NADPH, read-out: WT): 9.6 µM | Km (OYERo2a (WT) [2]; 180 μM NADPH, read-out: C25S): 30.4 µM | Km (OYERo2a (WT) [8]; 180 μM NADPH, read-out: C25G): 94.4 µM | relative activity (OYERo2a (WT) [9]): while the OYERo2a became almost completely inactivated

NC(=O)C1=CN([C@@H]2O[C@H](COP(=O)(O)OP(=O)(O)OC[C@H]3O[C@@H](n4cnc5c(N)ncnc54)[C@H](OP(=O)(O)O)[C@@H]3O)[C@@H](O)[C@H]2O)C=CC1 [NADPH]
Km (OYERo2a (WT) [7]; electron donor, 1 mM N-methylmaleimide, read-out: C25A / NADPH): 121 ± 8.7 µM | Km (OYERo2a (WT) [1]; electron donor, 1 mM N-methylmaleimide, read-out: WT / NADPH): 34.8 ± 2 µM | Km (OYERo2a (WT) [2]; electron donor, 1 mM N-methylmaleimide, read-out: C25S / NADPH): 76.9 ± 4.1 µM | Km (OYERo2a (WT) [8]; electron donor, 1 mM N-methylmaleimide, read-out: C25G / NADPH): 55.2 ± 2.3 µM

From article PMC6194350, “Catalytic Performance of a Class III Old Yellow Enzyme and Its Cysteine Variants” (Frontiers in Microbiology, 2018)
